# Legend:
# [1] = system: female albino mice (Carworth CF-1); experiment: in vivo; type: in vivo; conditions: Group I: Diflunisal 400 mg./kg. (100 %LD50) alone; oral; 20 tested; 14 days
# Description: Measurements of the relative safety of the components and of the combination were carried out using acute oral toxicity studies in female mice. Randomly selected female albino mice (Carworth CF-1) weighing from 18 to 24 grams, and 6 to 7 weeks old, were used. The LD50 value for each drug was estimated from acute oral dose-response curves previously established. The following dose regimen was utilized:
# The preparations were administered by gastric intubation using a metal catheter attached to a springe. The various doses were administered randomly with 20 mice per group. Food was withheld one to two hours before and three hours following drug treatment. Water was available at all times. […] Body weights were taken pretest and on days 7 and 14.
# [2] = system: adjuvant arthritis induced in rats; experiment: adjuvant arthritis analgesic bioassay (tail pinch / foot bend squeak response); type: in vivo, Sprague-Dawley rats
# From the text: Since analgesic tests using intact animals are not sensitive enough to detect the analgesic activity of nonsteroidal anti-inflammatory compounds, the analgesic bioassay employed utilized inflammatory sensitization procedures, specifically adjuvant arthritis. Adjuvant arthritis induced in rats, the animals used in the bioassay, resembles rheumatoid arthritis in man with respect to the manifestation of inflammation and hyperalgesia. When the affected joints of rats with adjuvant arthritis are subjected to a gentle manipulation, preferably by extending the joint, the rats respond by squeaking, which is a definite and reproducible sign of algesia. The ability of the tested compounds to suppress this squeaking response was an accurate measure of the analgesic activity of the tested compounds.
# In accordance with the adjuvant arthritis bioassay used to evaluate the analgesic activity of the combinations of compounds of the present invention, young adult Sprague-Dawley rats of either sex are rendered hyperalgesic by injection of dessicated Mycobacterium- butyricum suspended in light mineral oil (Freund's adjuvant). The mycobacteria are ground in a mortar, suspended in the oil, and sterilized in an autoclave. Each animal receives 0.5 mg of the bacteria in 0.1 ml of oil, injected subcutaneously through a 21-gauge needle into the distal third of the tail.
# The animals can subsequently be used in two ways for testing the analgesic action of drugs. The day after the injection of adjuvant, the tail is found to be sensitive to touch. Approximately 16 hours after the injection, the experimenter tests the animals for the presence of hyperalgesia. This is done by holding the animal in one hand. With the thumb and forefinger of the other hand, the observer applies gentle pressure to the tail about 2.5 cm proximal to the point where the needle has been inserted. This gentle pressure is repeated at 5-sec intervals. If the rat endures five such gentle presses without emitting more than one "squeak", analgesia is considered to be present and a score of + is assigned. Two or more squeaks earns a rating of 0, or no analgesia. Before being assigned to an experiment, animals are screened and only those with the 0 rating are used.
# The hyperalgesic animals are assigned randomly to drug treatments and one of the treatments is always the vehicle without the drug (placebo group). […] […] This entire procedure may be referred to as "tail pinch" .technique. Alternatively, an apparatus for applying pressure to the tail may be employed and the "squeak threshold" determined before and after drug.
# The adjuvant-injected animals, if left undisturbed, develop severe arthritis which becomes especially manifest in about two weeks. […] This "foot bend" technique yields drug responses essentially identical with those obtained by the "tail pinch" procedure.
# For a further description of this bioassay and its significance, reference is made to Kuzuma and Kawai, "Evaluation of Analgesic Agents in Rats with Adjuvant Arthritis", Chem. Pharm. Bull., 23 (6) 1184-1191 (1975).
smiles,measurement,setting,value
"O=C(O)c1cc(-c2ccc(F)cc2F)ccc1O [Diflunisal, 2-hydroxy-5-(2',4'-difluorophenyl)benzoic acid]",No. Dead,[1],14
same,Number of Rats with Analgesia,"[2]; 1/2 h after administration, dose 5 mg./kg., 8 rats per dose",0
same,Number of Rats with Analgesia,"[2]; 1/2 h after administration, dose 10 mg./kg., 8 rats per dose",0
same,Percent of Rats with Analgesia Diflunisal Alone,"[2]; 1 Hrs. after drug, Diflunisal 4 mg./kg., 8 rats per dose",0%
same,Percent of Rats with Analgesia Diflunisal Alone,"[2]; 1 Hrs. after drug, Diflunisal 4 mg./kg., 10 rats per dose",0%
same,Percent of Rats with Analgesia Diflunisal Alone,"[2]; 1 Hrs. after drug, Diflunisal 8 mg./kg., 8 rats per dose",0%
same,Percent of Rats with Analgesia Diflunisal Alone,"[2]; 1 Hrs. after drug, Diflunisal 10 mg./kg., 8 rats per dose",0%
same,Percent of Rats with Analgesia Diflunisal Alone,"[2]; 1 Hrs. after drug, Diflunisal 16 mg./kg., 8 rats per dose",0%
same,Percent of Rats with Analgesia Diflunisal Alone,"[2]; 2 Hrs. after drug, Diflunisal 2 mg./kg., 10 rats per dose",20%
same,Percent of Rats with Analgesia Diflunisal Alone,"[2]; 3 Hrs. after drug, Diflunisal 4 mg./kg., 10 rats per dose",0%
same,Percent of Rats with Analgesia Diflunisal Alone,"[2]; 3 Hrs. after drug, Diflunisal 5 mg./kg., 8 rats per dose",25%
same,Percent of Rats with Analgesia Diflunisal Alone,"[2]; 3 Hrs. after drug, Diflunisal 8 mg./kg., 10 rats per dose",50%
same,Percent of Rats with Analgesia Diflunisal Alone,"[2]; 4 Hrs. after drug, Diflunisal 2 mg./kg., 10 rats per dose",0%
same,Percent of Rats with Analgesia Diflunisal Alone,"[2]; 4 Hrs. after drug, Diflunisal 4 mg./kg., 10 rats per dose",0%
same,Percent of Rats with Analgesia Diflunisal Alone,"[2]; 4 Hrs. after drug, Diflunisal 5 mg./kg., 8 rats per dose",10%
same,Percent of Rats with Analgesia Diflunisal Alone,"[2]; 4 Hrs. after drug, Diflunisal 8 mg./kg., 10 rats per dose",30%
same,Percent of Rats with Analgesia Diflunisal Alone,"[2]; 5 Hrs. after drug, Diflunisal 5 mg./kg., 8 rats per dose",0%
same,Percent of Rats with Analgesia Diflunisal Alone,"[2]; 5 Hrs. after drug, Diflunisal 8 mg./kg., 8 rats per dose",0%
same,Percent of Rats with Analgesia Diflunisal Alone,"[2]; 6 Hrs. after drug, Diflunisal 8 mg./kg., 8 rats per dose",0%
same,Percent of Rats with Analgesia Diflunisal Alone,"[2]; 6 Hrs. after drug, Diflunisal 10 mg./kg., 8 rats per dose",0%
same,Number of Rats with Analgesia,"[2]; 1 h after administration, dose 2 mg./kg., 10 rats per dose",2
same,Number of Rats with Analgesia,"[2]; 1 h after administration, dose 4 mg./kg., 8 rats per dose",0
same,Number of Rats with Analgesia,"[2]; 1 h after administration, dose 4 mg./kg., 10 rats per dose",0
same,Number of Rats with Analgesia,"[2]; 1 h after administration, dose 5 mg./kg., 8 rats per dose",0
same,Number of Rats with Analgesia,"[2]; 1 h after administration, dose 8 mg./kg., 8 rats per dose",0
same,Number of Rats with Analgesia,"[2]; 1 h after administration, dose 8 mg./kg., 10 rats per dose",4
same,Number of Rats with Analgesia,"[2]; 1 h after administration, dose 10 mg./kg., 8 rats per dose",0
same,Number of Rats with Analgesia,"[2]; 1 h after administration, dose 16 mg./kg., 8 rats per dose",0
same,Number of Rats with Analgesia,"[2]; 1 h after administration, dose 20 mg./kg., 8 rats per dose",1
same,Number of Rats with Analgesia,"[2]; 2 h after administration, dose 2 mg./kg., 10 rats per dose",2
same,Number of Rats with Analgesia,"[2]; 2 h after administration, dose 4 mg./kg., 8 rats per dose",2
same,Number of Rats with Analgesia,"[2]; 2 h after administration, dose 4 mg./kg., 10 rats per dose",1
same,Number of Rats with Analgesia,"[2]; 2 h after administration, dose 5 mg./kg., 8 rats per dose",1
same,Number of Rats with Analgesia,"[2]; 2 h after administration, dose 8 mg./kg., 8 rats per dose",1
same,Number of Rats with Analgesia,"[2]; 2 h after administration, dose 8 mg./kg., 10 rats per dose",4
same,Number of Rats with Analgesia,"[2]; 2 h after administration, dose 10 mg./kg., 8 rats per dose",1
same,Number of Rats with Analgesia,"[2]; 2 h after administration, dose 16 mg./kg., 8 rats per dose",4
same,Number of Rats with Analgesia,"[2]; 2 h after administration, dose 20 mg./kg., 8 rats per dose",4
same,Number of Rats with Analgesia,"[2]; 3 h after administration, dose 2 mg./kg., 10 rats per dose",2
same,Number of Rats with Analgesia,"[2]; 3 h after administration, dose 4 mg./kg., 8 rats per dose",1
same,Number of Rats with Analgesia,"[2]; 3 h after administration, dose 4 mg./kg., 10 rats per dose",0
same,Number of Rats with Analgesia,"[2]; 3 h after administration, dose 5 mg./kg., 8 rats per dose",2
same,Number of Rats with Analgesia,"[2]; 3 h after administration, dose 8 mg./kg., 8 rats per dose",3
same,Number of Rats with Analgesia,"[2]; 3 h after administration, dose 8 mg./kg., 10 rats per dose",5
same,Number of Rats with Analgesia,"[2]; 3 h after administration, dose 10 mg./kg., 8 rats per dose",4
same,Number of Rats with Analgesia,"[2]; 3 h after administration, dose 16 mg./kg., 8 rats per dose",6
same,Number of Rats with Analgesia,"[2]; 3 h after administration, dose 20 mg./kg., 8 rats per dose",7
same,Number of Rats with Analgesia,"[2]; 4 h after administration, dose 2 mg./kg., 10 rats per dose",0
same,Number of Rats with Analgesia,"[2]; 4 h after administration, dose 4 mg./kg., 8 rats per dose",0
same,Number of Rats with Analgesia,"[2]; 4 h after administration, dose 4 mg./kg., 10 rats per dose",0
same,Number of Rats with Analgesia,"[2]; 4 h after administration, dose 5 mg./kg., 8 rats per dose",1
same,Number of Rats with Analgesia,"[2]; 4 h after administration, dose 8 mg./kg., 8 rats per dose",1
same,Number of Rats with Analgesia,"[2]; 4 h after administration, dose 8 mg./kg., 10 rats per dose",3
same,Number of Rats with Analgesia,"[2]; 4 h after administration, dose 10 mg./kg., 8 rats per dose",4
same,Number of Rats with Analgesia,"[2]; 4 h after administration, dose 16 mg./kg., 8 rats per dose",3
same,Number of Rats with Analgesia,"[2]; 4 h after administration, dose 20 mg./kg., 8 rats per dose",7
same,Number of Rats with Analgesia,"[2]; 5 h after administration, dose 2 mg./kg., 10 rats per dose",0
same,Number of Rats with Analgesia,"[2]; 5 h after administration, dose 4 mg./kg., 8 rats per dose",0
same,Number of Rats with Analgesia,"[2]; 5 h after administration, dose 4 mg./kg., 10 rats per dose",1
same,Number of Rats with Analgesia,"[2]; 5 h after administration, dose 5 mg./kg., 8 rats per dose",0
same,Number of Rats with Analgesia,"[2]; 5 h after administration, dose 8 mg./kg., 8 rats per dose",0
same,Number of Rats with Analgesia,"[2]; 5 h after administration, dose 8 mg./kg., 10 rats per dose",2
same,Number of Rats with Analgesia,"[2]; 5 h after administration, dose 10 mg./kg., 8 rats per dose",2
same,Number of Rats with Analgesia,"[2]; 5 h after administration, dose 16 mg./kg., 8 rats per dose",2
same,Number of Rats with Analgesia,"[2]; 5 h after administration, dose 20 mg./kg., 8 rats per dose",5
same,Number of Rats with Analgesia,"[2]; 6 h after administration, dose 2 mg./kg., 10 rats per dose",0
same,Number of Rats with Analgesia,"[2]; 6 h after administration, dose 4 mg./kg., 8 rats per dose",0
same,Number of Rats with Analgesia,"[2]; 6 h after administration, dose 4 mg./kg., 10 rats per dose",0
same,Number of Rats with Analgesia,"[2]; 6 h after administration, dose 5 mg./kg., 8 rats per dose",0
same,Number of Rats with Analgesia,"[2]; 6 h after administration, dose 8 mg./kg., 8 rats per dose",0
same,Number of Rats with Analgesia,"[2]; 6 h after administration, dose 8 mg./kg., 10 rats per dose",1
same,Number of Rats with Analgesia,"[2]; 6 h after administration, dose 10 mg./kg., 8 rats per dose",0
same,Number of Rats with Analgesia,"[2]; 6 h after administration, dose 16 mg./kg., 8 rats per dose",1
same,Number of Rats with Analgesia,"[2]; 6 h after administration, dose 20 mg./kg., 8 rats per dose",4
same,Total Positives,"[2]; sum over 1/2, 1 and 2 h, dose 5 mg./kg., 8 rats per dose",1
same,Total Positives,"[2]; sum over 1/2, 1 and 2 h, dose 10 mg./kg., 8 rats per dose",1
same,Total Positives,"[2]; sum over 1 and 2 h, dose 4 mg./kg., 10 rats per dose",1
